From US9884848B2, “Phenyl triazole derivative and its use for modulating the GABAA receptor complex” (SANIONA A/S, priority 2012, dated 2018)

Biological target: T1, human GABAA α5β3*γ2s receptors (Homo sapiens, UniProt P18507+P31644)
T1 construct: expressed in transfected cells
Test: In vitro inhibition of 3H-flumazenil binding, HEK cells expressing the human GABAA α5β3*γ2S receptor
Description: When the cultures reach confluency, the DMEM is removed and the cells are washed (10 ml for T175 flasks; 50 ml for roller bottles) once in Dulbecco's Phosphate Buffered Saline (DPBS). Following addition of DPBS to the cultures (10 ml for T175 flasks; 100 ml for roller bottles) for approximately 5 min cells are easily detached from the surface by shaking or tapping the flask gently. The cell suspension is transferred to Falcon tubes and centrifuged at 23,500×g for 10 min at 2° C. The pellet is washed once in 15 ml Tris-citrate buffer (50 mM, pH 7.1) using an Ultra-Turrax homogenizer and centrifuged at 2° C. for 10 min at 27,000×g. The washed pellet is re-suspended in 15 ml Tris-citrate buffer and frozen at −80° C. until the day of the binding experiment.
On the day of the experiment the cell membrane preparation is thawed and centrifuged at 2° C. for 10 min at 27,000×g.
Non-specific binding is determined using clonazepam (1 μM, final concentration). […]
The amount of radioactivity on the filters is determined by conventional liquid scintillation counting using a […]
where B is the binding in percentage of total specific binding; C is the concentration of test compound; and n is the Hill coefficient. […] The IC50 value is calculated from the concentration response curves by the non-linear regression method using the curve-fitting program GraphPad Prism.

T1 sequence (P31644 32-462): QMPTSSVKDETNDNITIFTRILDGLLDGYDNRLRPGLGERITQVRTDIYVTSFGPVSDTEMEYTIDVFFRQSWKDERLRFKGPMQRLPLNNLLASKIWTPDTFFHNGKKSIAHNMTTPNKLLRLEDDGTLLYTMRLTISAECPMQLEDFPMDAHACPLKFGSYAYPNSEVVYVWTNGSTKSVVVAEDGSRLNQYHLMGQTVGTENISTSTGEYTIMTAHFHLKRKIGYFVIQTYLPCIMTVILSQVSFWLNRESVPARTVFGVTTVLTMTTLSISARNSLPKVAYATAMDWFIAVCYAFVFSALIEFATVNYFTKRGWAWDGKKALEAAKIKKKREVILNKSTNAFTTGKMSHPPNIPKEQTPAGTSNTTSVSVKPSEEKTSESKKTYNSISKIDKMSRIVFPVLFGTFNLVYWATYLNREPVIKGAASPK
T1 sequence (P18507 40-467 isoform P18507-1 limits assumed): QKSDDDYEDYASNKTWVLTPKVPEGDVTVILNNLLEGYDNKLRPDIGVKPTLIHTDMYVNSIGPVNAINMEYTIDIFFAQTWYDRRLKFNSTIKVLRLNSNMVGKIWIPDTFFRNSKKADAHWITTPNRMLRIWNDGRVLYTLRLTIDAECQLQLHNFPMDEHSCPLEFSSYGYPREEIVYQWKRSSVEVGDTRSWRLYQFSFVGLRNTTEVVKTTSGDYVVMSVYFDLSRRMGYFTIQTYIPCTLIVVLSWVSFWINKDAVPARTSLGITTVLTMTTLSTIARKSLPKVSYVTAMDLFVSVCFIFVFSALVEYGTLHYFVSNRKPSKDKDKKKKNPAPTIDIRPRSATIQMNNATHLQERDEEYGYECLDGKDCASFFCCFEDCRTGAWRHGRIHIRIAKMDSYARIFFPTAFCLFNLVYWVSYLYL

Ki: 87 nM
SMILES: NC(=O)c1ccc(OCc2c(C(F)F)nnn2-c2ccc(F)cc2)nn1 [Compound 1, 6-[[5-(difluoromethyl)-3-(4-fluorophenyl)triazol-4-yl]methoxy]pyridazine-3-carboxamide]
